Test results as given in the supplement of paper PMC10307832.

The cell lines below were run with O=C(Nc1cc(C(F)(F)F)cc(C(F)(F)F)c1)c1cc(Cl)ccc1O [IMD-0354] + COc1cccc2cc(-c3nc([C@H]4CC[C@H](C(=O)O)CC4)n4ncnc(N)c34)[nH]c12 [OSI-027] (partner 0.5 µM) (assay: relative viability (nuclei count vs DMSO), 5 days (fraction); higher = more cells survive). Conditions: first compound 0.04 µM.
How it was run: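 Relative viability divides the nuclei count in treated wells by that in vehicle wells. Lung cancer cell lines were seeded in 1536-well plates, dosed by pin tool the next day, and fixed and stained after 5 days in one step with final 0.05% Triton X-100, 1% formaldehyde and 1 ug/ml Hoechst. Dosing was a single drug or a fixed anchor-drug dose plus five library-drug doses (not always all listed) in √10 steps, and values are medians of duplicate plates imaged at 4×.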

Cell Line | relative viability
A-427 | 0.66
NCI-H661 | 0.812
NCI-H1734 | 0.625
NCI-H460 | 0.886
NCI-H2347 | 0.37
SW 1573 | 0.849
201T | 0.596
NCI-H1915 | 0.589
HCC-827 | 0.67
LXF-289 | 0.871
NCI-H23 | 0.538
NCI-H647 | 0.836
CAL-12T | 0.807
NCI-H1651 | 0.667
EPLC-272H | 0.288
NCI-H2228 | 0.586
NCI-H1792 | 0.791
NCI-H1355 | 0.382
NCI-H3122 | 1.08
NCI-H1437 | 0.915
NCI-H1755 | 0.65
NCI-H2023 | 0.484
HCC-15 | 0.656
NCI-H1944 | 0.441
PC-14 | 0.972
EKVX | 0.771

Same assay, conditions: first compound 0.1265 µM

Cell Line | relative viability
LU99A | 0.286
BEN | 0.301
HARA | 0.542
HCC-78 | 0.363
NCI-H322M | 0.493
LCLC-97TM1 | 0.489
NCI-H2009 | 0.564
A-427 | 0.459
NCI-H661 | 0.66
NCI-H1734 | 0.662
NCI-H460 | 0.626
NCI-H2347 | 0.331
SW 1573 | 0.566
201T | 0.882
NCI-H1915 | 0.629
HCC-827 | 0.693
LXF-289 | 0.772

Cell Line | relative viability
NCI-H23 | 0.631
NCI-H647 | 0.599
CAL-12T | 0.463
NCI-H1651 | 0.667
EPLC-272H | 0.281
NCI-H2228 | 0.431
NCI-H1792 | 0.701
NCI-H1355 | 0.45
NCI-H3122 | 0.851
NCI-H1437 | 0.763
NCI-H1755 | 0.782
NCI-H2023 | 0.382
HCC-15 | 0.615
NCI-H1944 | 0.445
PC-14 | 0.805
EKVX | 0.685

Same assay, conditions: first compound 0.4 µM

Cell Line | relative viability
LU99A | 0.246
BEN | 0.264
HARA | 0.179
HCC-78 | 0.314
NCI-H322M | 0.427
LCLC-97TM1 | 0.265
NCI-H2009 | 0.416
A-427 | 0.288
NCI-H661 | 0.577
NCI-H1734 | 0.44
NCI-H460 | 0.225
NCI-H2347 | 0.42
SW 1573 | 0.349
NCI-H1915 | 0.107
HCC-827 | 0.621
LXF-289 | 0.492

Cell Line | relative viability
NCI-H23 | 0.341
NCI-H647 | 0.367
CAL-12T | 0.385
NCI-H1651 | 0.495
EPLC-272H | 0.292
NCI-H2228 | 0.348
NCI-H1792 | 0.35
NCI-H1355 | 0.372
NCI-H3122 | 0.505
NCI-H1437 | 0.544
NCI-H1755 | 0.528
NCI-H2023 | 0.274
HCC-15 | 0.366
NCI-H1944 | 0.375
PC-14 | 0.284
EKVX | 0.629

Same assay, conditions: first compound 1.265 µM

Cell Line | relative viability
LU99A | 0.259
BEN | 0.311
HARA | 0.148
HCC-78 | 0.296
NCI-H322M | 0.285
LCLC-97TM1 | 0.186
NCI-H2009 | 0.133
A-427 | 0.127
NCI-H661 | 0.264
NCI-H1734 | 0.281
NCI-H460 | 0.0286
NCI-H2347 | 0.294
SW 1573 | 0.124
201T | 0.553
NCI-H1915 | 0.241
HCC-827 | 0.225
LXF-289 | 0.34

Cell Line | relative viability
NCI-H23 | 0.195
NCI-H647 | 0.364
CAL-12T | 0.193
NCI-H1651 | 0.199
EPLC-272H | 0.167
NCI-H2228 | 0.23
NCI-H1792 | 0.394
NCI-H1355 | 0.258
NCI-H3122 | 0.223
NCI-H1437 | 0.22
NCI-H1755 | 0.354
NCI-H2023 | 0.105
HCC-15 | 0.164
NCI-H1944 | 0.317
PC-14 | 0.115
EKVX | 0.631

Same assay, conditions: first compound 4 µM

Cell Line | relative viability
LU99A | 0.196
BEN | 0.195
HARA | 0.0924
HCC-78 | 0.283
NCI-H322M | 0.33
LCLC-97TM1 | 0.148
NCI-H2009 | 0.109
A-427 | 0.135
NCI-H661 | 0.25
NCI-H1734 | 0.137
NCI-H460 | 0.0262
NCI-H2347 | 0.335
SW 1573 | 0.0864
201T | 0.175
NCI-H1915 | 0.155
HCC-827 | 0.196
LXF-289 | 0.115

Cell Line | relative viability
NCI-H23 | 0.19
NCI-H647 | 0.0879
CAL-12T | 0.17
NCI-H1651 | 0.0772
EPLC-272H | 0.0714
NCI-H2228 | 0.142
NCI-H1792 | 0.418
NCI-H1355 | 0.234
NCI-H3122 | 0.114
NCI-H1437 | 0.25
NCI-H1755 | 0.302
NCI-H2023 | 0.108
HCC-15 | 0.131
NCI-H1944 | 0.161
PC-14 | 0.0708
EKVX | 0.19
